The conditions of series [1]: cited from earlier work.
For series [2] the following is noted: cited from earlier work; for Cmax / AUC0-24 h: Caucasians 18-60 years of age; for Cmax: in ng/mL; for AUC0-24 h: in ng·h/mL.
For series [3] the following is noted: cited from earlier work; for Cmax / Tmax: arterial.
Series [4] in a line: Pharmacokinetics of inhaled (nebulized) esketamine versus IV infusion, arterial concentrations. The conditions noted are these: comparison across Examples 3 and 4, not within the same individuals.
The conditions of series [5]: cited from earlier work. This is another data set of the same source.
A short description of series [6]: clinical. The conditions noted are these: human, in vivo.
The mark [7] stands for this setting: inhalation of 0.35 mg/kg esketamine.
The mark [8] stands for this setting: inhalation of 0.5 mg/kg esketamine.
Setting [9] is: inhalation of 0.7 mg/kg esketamine.
Setting [10] is: IN administration, based upon the models.

Read-outs that look alike come from different tables or passages of the source.

Usually Tmax stands for the time from dosing to the highest level. What is called bioavailability is the share of a dose that reaches the circulation, judged against a reference dose that is usually intravenous. Broadly, the half-life is the time needed for the level to fall by half in the phase considered. Lower therefore signals rapid decline.

Take `Cc1cccc([C@H](C)c2cnc[nH]2)c1C` [dexmedetomidine]: the “disposition, intravenous versus intranasal administration” value in series [1] (2-compartment disposition model) is given as “similar”. Also, in series [1] (both atomization and drops), the intranasal bioavailability is recorded as approximately 40%. Also, the “uptake kinetics of atomized and intranasal relative to IV” value in series [1] (in vivo, iv) is recorded as “slower update kinetics”. In addition, in series [1] (intranasal by atomizer), the “absorption rate constant (kabs)” value was 0.857 h⁻¹ and the “mean transit time (delay in uptake)” value was 0.176 h. Moreover, in series [1] (intranasal by drops), the “absorption rate constant (kabs)” value was 0.725 h⁻¹ and the “mean transit time (delay in uptake)” value was 0.163 h.

Take `N[C@]1(c2ccccc2Cl)CCCCC1=O` [noresketamine]: the Cmax in series [2] (28 mg IN esketamine) was 59.1; in series [2] (56 mg IN esketamine), 119.7; in series [2] (84 mg IN esketamine), 180; in series [3] (setting [7]), 0.052 µg/mL; in series [3] (setting [8]), 0.097 µg/mL; in series [3] (setting [9]), 0.153 µg/mL. Also, the AUC0-24 h in series [2] (28 mg IN esketamine) is given as 274.4; in series [2] (56 mg IN esketamine) it was 516.3; in series [2] (84 mg IN esketamine) it was 758. Further, the Tmax is on record as 63 min in series [3] (setting [7]), 48 min in series [3] (setting [8]) and 41 min in series [3] (setting [9]).

Consider `CN[C@]1(c2ccccc2Cl)CCCCC1=O` [esketamine, S-ketamine], for which the “absorption following INH versus IN” value in series [4] is listed as “more rapid”. The Cmax in series [2] (28 mg IN esketamine) was 43.8; in series [2] (56 mg IN esketamine) it was 72.5; in series [2] (84 mg IN esketamine) it was 101; in series [3] (setting [7]), 0.128 µg/mL; in series [3] (setting [8]) it was 0.18 µg/mL; in series [3] (setting [9]) it was 0.227 µg/mL. Also, the values for the AUC0-24 h in series [2] (28 mg IN esketamine), in series [2] (56 mg IN esketamine) and in series [2] (84 mg IN esketamine) were 147.3, 254.7 and 362.2, respectively. Moreover, the “fraction of dose absorbed through the nasal cavity” value in series [2] (setting [10]) was approximately 54%. For the same compound, in series [2] (setting [10]), the “fraction of dose swallowed” value is 46%. Moreover, in series [2] (IN administration), the “swallowed percentage reaching the systemic circulation after first-pass metabolism” value is listed as 18.6%. The mean absorption time is 2.02 h in series [2] (absorption through the gut) and 0.333 h in series [2] (absorption through the nasal mucosa). For the same compound, the absolute bioavailability in series [2] (intranasal) is recorded as approximately 50%. Also, the “fraction of dose directly absorbed through the alveoli” value in series [3] (INH administration) was 70%. For the same compound, in series [3] (INH administration), the “fraction of dose travelling via a slower pathway (lung, GI or oropharyngeal absorption)” value was 30%. Moreover, in series [3] (INH administration), the “rate constant of the slow transit” value was 0.05 min⁻¹. Further, the “half-life of the slow transit” value in series [3] (INH administration, from rate constant) is given as 13 min. Further, in series [3] (INH, at the higher doses), the “dose-dependent reduction in bioavailability” value is given as 20%. The “modeled F value (extent of bioavailability)” value in series [3] (across INH doses, multicompartment model) is on record as 0.70. Also, in series [3] (following INH administration), the bioavailability is given as 70%. For the same compound, the “fraction metabolized to noresketamine” value in series [3] (in vivo) is reported as 78%. For the same compound, the Tmax was 22 min in series [3] (setting [7]), 15 min in series [3] (setting [8]) and 25 min in series [3] (setting [9]).

As for `C=CCN1CC[C@]23c4c5ccc(O)c4O[C@H]2C(=O)CC[C@@]3(O)[C@H]1C5` [naloxone], the “K (elimination rate constant), best-fit value” (0.4 mg IV, single elimination model) stood at 12.16 h⁻¹. In addition, under “IN doses of 1, 2 and 4 mg, best fit of one-phase association and dissociation model”, the “kabs (absorption rate constant)” value came out at 4.47 h⁻¹. Moreover, under “IN doses of 1, 2 and 4 mg, model fit”, the “elimination rate-constant, mean value” worked out at 0.82 h⁻¹. In addition, the bioavailability in series [5] (IM/SC dose) is 98.3%; in series [5] (nasal spray), 40-55%. Besides, the Cmax in series [6] (1 mg) was 0.0021 µg/mL; in series [6] (2 mg), 0.0043 µg/mL; in series [6] (4 mg), 0.0101 µg/mL. This compound also yielded a half-life in series [6] (iv, 0.4 mg) of 3.4 min.

Source of the values: patent publication US12502480B1, “System and method for administration of a substance” (Abusarah, Inc., priority 2025, dated 2025).
